Test results reported in patent US20160287696A1, “PAN POLLEN IMMUNOGENS AND METHODS AND USES FOR IMMUNE RESPONSE MODULATION” (LA JOLLA INSTITUTE FOR ALLERGY AND IMMUNOLOGY, priority 2013, published 2016).
Several values for one entry are separate records, joined by “and”; a condition that tells them apart may be missing. Identical values can stand only once.

Tested on: PBMCs from Phl p reactive donors
Experiment: Cross-reactivity: IL-5 ELISPOT of PBMCs expanded 14 days with individual peptides, response to pollen extracts
Type: cell-based, human
Settings: for Amb p % Reactivity: Amb p (weed) pollen extract; for Amb p % Reactivity / Ant o % Reactivity / Bet v % Reactivity / Cyn d % Reactivity / Lol p % Reactivity / Ole e % Reactivity / Phl p % Reactivity / Pla l % Reactivity / Poa p % Reactivity / Que a % Reactivity: reactivity of extract as percentage of reactivity to the peptide, PBMCs expanded 14 days with the peptide; for Ant o % Reactivity: Ant o (grass) pollen extract; for Bet v % Reactivity: Bet v (tree) pollen extract; for Cyn d % Reactivity: Cyn d (grass) pollen extract; for Lol p % Reactivity: Lol p (grass) pollen extract; for Ole e % Reactivity: Ole e (tree) pollen extract; for Phl p % Reactivity: Phl p (grass) pollen extract; for Pla l % Reactivity: Pla l (weed) pollen extract; for Poa p % Reactivity: Poa p (grass) pollen extract; for Que a % Reactivity: Que a (tree) pollen extract; for Controls, Irrelevant Pool: control: response to irrelevant pool of cells expanded with the peptide; for Controls, Relevant Pool: control: response to relevant pool of cells expanded with the peptide; for % Reactivity, Fra e: reactivity of Fra e (tree) pollen extract as percentage of the reactivity to the peptide, cells expanded with the peptide for 14 days
Experimental: For each peptide, TG allergic donors were selected that reacted to the peptide after expanding PBMCs in vitro with TG extract. […] Reponses to extracts and peptide pools are expressed as the relative fraction of the response to the peptide itself, and capped at 100%.
Each peptide was used to stimulate cells and cross reactivity was tested for extracts from each pollen species. The number of mismatches (# of mm) for each peptide compared to the pollen species and the reactivity of the extracts as a percentage of the reactivity compared to the peptide are shown.
PBMCs from Phl p reactive donors were expanded with individual PG+ peptides as well as peptides derived from major allergens of Phl p for 14 days (peptides shown in Table 10). For each peptide, the mismatch to a corresponding sequence in a non-grass pollen species or a pollen species other than Phl p were determined. Cytokine IL-5 responses were measured in response to the peptide itself, Phl p extract and extracts of the other pollen species. Reponses to extracts and peptide pools were expressed as the relative fraction of the response to the peptide itself and plotted as a function of conservation of the peptide in the different extracts (FIG. 1).

| Sequence | Amb p % Reactivity | Ant o % Reactivity | Bet v % Reactivity | Cyn d % Reactivity | Lol p % Reactivity | Ole e % Reactivity | Phl p % Reactivity | Pla l % Reactivity | Poa p % Reactivity | Que a % Reactivity | Controls, Irrelevant Pool | Controls, Relevant Pool | % Reactivity, Fra e |
| --- | --- | --- | --- | --- | --- | --- | --- | --- | --- | --- | --- | --- | --- |
| NLALSIKYNKEGDSM | 76% | 0% | 0% | 76% | 76% | 78% | 57% | 41% | 100% | 0% | 0 | 100 | 0% |
| INVGFKAAVAAAASV |  |  | 1% and 0% |  |  |  |  | 0% and 9% |  | 0% and 2% |  | 100 and 70 and 60 |  |
| FPIVQRFLEGASSID |  | 89% and 100% | 5% and 0% | 22% and 39% |  |  |  |  | 95% and 100% | 0% | 100 |  |  |
| EEWEPLTKKGNVWEV | 49% | 100% | 3% | 7% | 100% | 13% | 100% | 23% | 100% | 1% | 32 | 100 | 76% |
| NVFDEVIPTAFTVGK |  |  | 2% and 0% | 0% | 96% and 100% |  | 75% and 81% |  |  | 0% | 17 and 28 | 100 |  |
| LAKYKANWIEIMRIK |  | 14% |  | 47% | 33% |  | 6% |  | 22% |  | 19 | 31 | 14% |
| IGSFFYFPSIGMQRT | 0% | 3% | 2% | 9% | 6% | 1% | 0% | 2% | 2% | 1% | 1 | 63 | 1% |
| DIYNYMEPYVSKVDP | 37% |  | 0% | 83% | 100% | 82% | 30% | 17% | 23% | 0% | 49 | 100 | 49% |
| STWYGKPTGAGPKDN |  | 51% and 64% | 0% |  | 64% and 40% |  |  |  |  | 1% and 0% |  |  | 1% and 0% |
| LIEKINAGFKAAVAA |  |  | 0% and 9% | 1% and 9% | 39% and 77% | 2% and 12% |  |  | 41% and 79% | 0% and 3% | 14 and 20 | 83 and 90 |  |
| MRNVFDDVVPADFKV |  |  | 2% and 3% and 1% and 0% |  | 88% and 82% and 73% and 72% and 100% |  |  |  |  |  |  | 81 and 94 and 98 and 100 |  |
| GSDEKNLALSIKYNK | 5% | 58% | 0% | 8% | 66% | 10% | 32% | 0% | 67% | 0% | 19 | 87 | 4% |
| NVWEVKSSKPLVGPF |  |  | 1% and 2% and 5% and 4% and 0% |  |  |  |  |  |  |  |  | 100 and 68 and 94 | 0% |
